Assay results as given in patent EP0840727B1, “3-HYDROXY-2(1H)-[…] AGENTS” (priority 1995, dated 1997).
Marks after values point to notes of the source that are not given here.

How the values were obtained:
Assay type in all cases: in vivo
[1] = Promoting excretion of 238Pu(IV) in mice by orally administered ligands; details: of ligand by gavage three minutes after iv ^238Pu(IV); kill at 24 hours
Text: (§1) Animal studies were completed using methods detailed in Radiation Protection Dosimetry, in press, P. W. Durbin et al., "In Vivo Chelation of Am(III), Pu(IV), Np(V) and U(VI) in Mice by TREN-(Me-3,2-HOPO)"; Radiation Protection Dosimetry, 17, No. 1, 1989, p. 351, P. W. Durbin et al., "Removal of ^238Pu(IV) from Mice by Polycatechoylate, -Hydroxamate or -Hydroxypyridinonate Ligands"; Radiation Research, 99, 1984, p. 85, P. W. Durbin et al., "Specific Sequestering Agents for the Actinides ..."; Radiation Research, 99, 1984, p. 106, P. W. Durbin et al., "Removal of Pu and Am from Beagles and Mice ..."; Radiation Research, 81, 1980, p. 170, R. D. Lloyd et al., and P. W. Durbin et al., "Specific Sequestering Agents for the Actinides ...". The foregoing articles are hereby incorporated by reference.
Radionuclides used in the animal studies came from a variety of sources. However, they can be purchased commercially. […]
The novel chelating agents of the present invention and comparative compounds were tested for their effectiveness in promoting excretion of ^238Pu(IV) by oral administration to mice as follows. […] The ^238Pu(IV) in skeleton, soft tissues, and separated excreta was determined by counting the ^234U L x-rays. […]

[2] = Promoting excretion of 241Am(III) in mice by injected ligand
Text: as §1
Radionuclides used in the animal studies came from a variety of sources. However, they can be purchased commercially. The ^238Pu(IV) citrate and ^241Am(III) citrate solutions were prepared for animal injection by 8- to 10-fold dilution with 0.14M NaCl (pH 4) of concentrated stock solutions (0.08M sodium citrate buffer) that had been held in frozen storage at Lawrence Berkeley Laboratory (hereinafter LBL) for several years. [The ^238Pu(IV) was originally obtained from D. R. Atherton at the University of Utah Radiobiology Laboratory, Salt Lake City. The ^241Am(III) solution had been obtained many years earlier from the LBL Actinide Chemistry group.]
(§2) One of the comparative chelating agents TREN-Me-3,2-HOPO, was also tested for effectiveness in promoting excretion of ^241Am(III), ^237Np(V), and ^232U(VI) by injection into mice, as follows: Mice, in groups of five, each received an intravenous injection of (a) 1100 Bq of ^241AM(III) in 0.2 mL of citrate buffer, (b) 150 Bq of ^232UO2Cl2 plus 3.6 mg of ^235UO2Cl2 in 0.2 mL of saline, or (c) 200 Bq of ^237NpO2Cl (7.5 mg of ^237NpO2Cl) in 0.2 mL of saline. Three to five minutes later, […] of TREN-Me-3,2-HOPO was injected intraperitoneally in 0.5 mL of saline. The mice were killed 24 hours after the actinide injection, frozen, and dissected after partial thawing. The skeleton, soft tissues, and separated excreta were radioanalyzed by counting the ^241Am gamma rays, or the alpha particles emitted by ^237Np or ^232U (and its ingrowing daughters). Removal of those actinides from mice by injected TREN-Me-3,2-HOPO is summarized in Table 5, which also includes data for mice similarly treated with CaNa3-DTPA and for actinide-injected controls. […] The structure of Am(III)-TREN-Me-3,2-HOPO is considered to resemble that of the Gd(III) complexes (see example 20). Complexation of the fraction of Np(V) that is reduced in vivo to Np(IV) is considered to resemble that of Pu(IV). Complexation of U(VI) is considered to take place through binding to UO2^2+.

[3] = Promoting excretion of 237Np(V) in mice by injected ligand
Text: as §1
The ^237Np(V) was obtained from J. Bucher of the LBL Actinide Chemistry group as NpO2Cl in 0.1 M HCl. It was diluted to the desired radioactivity concentration in 0.14M NaCl and the pH was adjusted to about 4.5 with NaOH just before use.
as §2

[4] = Am(III), ligand 30 mmol.kg-1 i.p at 3 to 5 min after actinide i.v., kill at 24 h
[5] = Am(III), ligand 30 mmol.kg-1 i.p at 3 to 5 min after actinide i.v., kill at 24 h, pooled
[6] = Np(V), ligand 30 mmol.kg-1 i.p at 3 to 5 min after actinide i.v., kill at 24 h
[7] = Np(V), ligand 30 mmol.kg-1 i.p at 3 to 5 min after actinide i.v., kill at 24 h, pooled

SMILES: Cn1ccc(C(=O)NCCN(CCNC(=O)c2ccn(C)c(=O)c2O)CCNC(=O)c2ccn(C)c(=O)c2O)c(O)c1=O [TREN-Me-3,2-HOPO, N,N,N,-Tris[(3-hydroxy-1-methyl-2-oxo-1,2-dihydropyridin-4-yl)carboxamidoethyl]-amine]
- Pu removal by oral administration (in words) [1]: the more effective in both (by oral and injection) cases
- Am content of tissues compared with controls (in words) ([2]; 30 µmol/kg intraperitoneally three to five minutes after actinide): the Am content of all tissues was greatly reduced
- percent of injected actinide ± SD at 24 h, tissues: liver [2, 4]: 1.0 ± 0.6^d,e percent of injected actinide
- percent of injected actinide ± SD at 24 h, tissues: skeleton [2, 4]: 8.1 ± 1.6^d percent of injected actinide
- percent of injected actinide ± SD at 24 h, tissues: soft tissue [2, 4]: 1.6 ± 0.6^d percent of injected actinide
- percent of injected actinide ± SD at 24 h, whole body [2, 4]: 11 ± 1.4^d,e percent of injected actinide
- percent of injected actinide at 24 h, excreta: feces and GI contents [2, 5]: 38% of injected actinide
- percent of injected actinide at 24 h, excreta: urine 0-24 h [2, 5]: 51% of injected actinide
- percent of injected actinide at 24 h, tissues: kidneys [2, 5]: 0.2% of injected actinide
- percent of injected actinide ± SD at 24 h, tissues: skeleton [3, 6]: 34 ± 4.5% of injected actinide
- percent of injected actinide ± SD at 24 h, tissues: soft tissue [3, 6]: 3.1 ± 1.1% of injected actinide
- percent of injected actinide ± SD at 24 h, whole body [3, 6]: 42 ± 11^d,e percent of injected actinide
- percent of injected actinide at 24 h, excreta: feces and GI contents [3, 7]: 17% of injected actinide
- percent of injected actinide at 24 h, excreta: urine 0-24 h [3, 7]: 40% of injected actinide
- percent of injected actinide at 24 h, tissues: kidneys [3, 7]: 1.0% of injected actinide
- Np content of the soft tissues compared with controls (in words) ([3]; intraperitoneally three to five minutes after actinide): the Np content of the soft tissues was significantly reduced
